# Source: article PMC9374744, “Structural basis for receptor selectivity and inverse agonism in S1P5 receptors” (Nature Communications, 2022)
# Several values for one entry are separate records, joined by “and”; a condition that tells them apart may be missing. Equal values may be shown once.
# Key:
# human S1P5 T79A mutant = human S1P5 T79A mutant (Homo sapiens, UniProt Q9H228, T79A); assay: BRET-based cAMP Gi signaling assay, S1P5 T79A; settings: T79A, Suppl. Fig. 6c
# human S1P5 V115A mutant = human S1P5 V115A mutant (Homo sapiens, UniProt Q9H228, V115A); assay: BRET-based cAMP Gi signaling assay, S1P5 V115A; settings: V115A, Suppl. Fig. 6e
# human WT S1P5 receptor = human WT S1P5 receptor (Homo sapiens, UniProt Q9H228); assay: BRET-based cAMP (EPAC biosensor) Gi signaling assay, WT S1P5; settings: WT, Suppl. Fig. 6e
# Chain of human WT S1P5 receptor (Q9H228 whole entry): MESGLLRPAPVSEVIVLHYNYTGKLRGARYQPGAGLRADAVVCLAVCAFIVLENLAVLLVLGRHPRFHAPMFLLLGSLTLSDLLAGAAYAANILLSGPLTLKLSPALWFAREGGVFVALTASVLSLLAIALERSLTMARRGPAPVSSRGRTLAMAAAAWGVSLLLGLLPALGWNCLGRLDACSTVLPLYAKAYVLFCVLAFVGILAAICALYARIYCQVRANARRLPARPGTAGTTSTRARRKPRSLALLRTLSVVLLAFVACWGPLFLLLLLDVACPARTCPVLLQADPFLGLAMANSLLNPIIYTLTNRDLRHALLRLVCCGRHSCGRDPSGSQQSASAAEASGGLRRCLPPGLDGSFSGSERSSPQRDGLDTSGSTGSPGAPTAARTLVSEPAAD
# Chain of human S1P5 T79A mutant (Q9H228 whole entry T79A): as the sequence (Q9H228 whole entry) above, with T79A counted along it
# Chain of human S1P5 V115A mutant (Q9H228 whole entry V115A): as the sequence (Q9H228 whole entry) above, with V115A counted along it
compound,measurement,setting,value
"CCCCCCCCCCCCC/C=C/[C@@H](O)[C@@H](N)COP(=O)(O)O [S1P, sphingosine-1-phosphate]","BRET signal, raw replicates",human S1P5 T79A mutant; [S1P] 0.228395 nM,0.728 and 0.7297 and 0.7309 and 0.7306 and 0.7448 and 0.7165 and 0.733 and 0.732 and 0.7327
same,"BRET signal, raw replicates",human S1P5 T79A mutant; [S1P] 0.685185 nM,0.7302 and 0.7321 and 0.7319 and 0.7287 and 0.7311 and 0.7348 and 0.7332 and 0.7318 and 0.7294
same,"BRET signal, raw replicates",human S1P5 T79A mutant; [S1P] 2.05556 nM,0.7333 and 0.7313 and 0.7311 and 0.7385 and 0.7367 and 0.733 and 0.7328 and 0.7316 and 0.7345
same,"BRET signal, raw replicates",human S1P5 T79A mutant; [S1P] 6.16667 nM,0.7337 and 0.7364 and 0.7232 and 0.7384 and 0.7383 and 0.7348 and 0.7304 and 0.7359 and 0.7321
same,"BRET signal, raw replicates",human S1P5 T79A mutant; [S1P] 18.5 nM,0.7347 (2×) and 0.7375 and 0.7387 and 0.7386 and 0.7311 and 0.7341 and 0.7354 and 0.7312
same,"BRET signal, raw replicates",human S1P5 T79A mutant; [S1P] 55.5 nM,0.7438 and 0.7423 (2×) and 0.7417 and 0.7457 and 0.7434 and 0.7489 and 0.7415 and 0.7424
same,"BRET signal, raw replicates",human S1P5 T79A mutant; [S1P] 185 nM,0.7491 (2×) and 0.7494 and 0.7531 and 0.7514 and 0.7551 and 0.7506 and 0.752 and 0.7559
same,"BRET signal, raw replicates",human S1P5 T79A mutant; [S1P] 781.25 nM,0.7686 and 0.7529 and 0.774 and 0.7668 (2×) and 0.7667 and 0.7673 and 0.7649 and 0.7637
same,"BRET signal, raw replicates",human S1P5 T79A mutant; [S1P] 3125 nM,0.7697 and 0.7671 and 0.7674 and 0.7739 and 0.7792 and 0.7768 and 0.7709 (2×) and 0.7684
same,"BRET signal, raw replicates",human S1P5 T79A mutant; [S1P] 12500 nM,0.7734 and 0.7682 and 0.7706 and 0.7812 and 0.7771 and 0.7806 and 0.7763 and 0.7799 and 0.7701
same,"BRET signal, raw replicate readings",human S1P5 V115A mutant; S1P 12500 nM,0.7675
same,"BRET signal, raw replicate readings",human S1P5 V115A mutant; S1P 25000 nM,0.7654 and 0.7708 and 0.7701 and 0.7667 and 0.7652 and 0.763 and 0.7734 and 0.7704 and 0.7743
same,"BRET signal, raw replicate readings",human WT S1P5 receptor; S1P 0.685185 nM,0.7239 and 0.7229 and 0.7227 and 0.7322 and 0.7297 and 0.7339 and 0.7264 and 0.7321 and 0.7345
same,"BRET signal, raw replicate readings",human WT S1P5 receptor; S1P 2.05556 nM,0.7237 and 0.7264 and 0.7244 and 0.734 and 0.7307 and 0.7332 and 0.7317 and 0.7311 and 0.7362
same,"BRET signal, raw replicate readings",human WT S1P5 receptor; S1P 6.16667 nM,0.7266 and 0.7231 and 0.7269 and 0.7291 and 0.734 and 0.731 and 0.7324 and 0.7315 and 0.7331
same,"BRET signal, raw replicate readings",human WT S1P5 receptor; S1P 18.5 nM,0.7325 and 0.7286 and 0.7291 and 0.731 and 0.733 and 0.7374 (2×) and 0.7372 and 0.7364
same,"BRET signal, raw replicate readings",human WT S1P5 receptor; S1P 55.5 nM,0.7419 and 0.743 and 0.7446 and 0.7524 and 0.7535 and 0.7545 and 0.7491 and 0.7497 (2×)
same,"BRET signal, raw replicate readings",human WT S1P5 receptor; S1P 185 nM,0.7589 and 0.7571 and 0.7588 and 0.7688 and 0.7682 and 0.766 and 0.76 and 0.7599 and 0.7596
same,"BRET signal, raw replicate readings",human WT S1P5 receptor; S1P 781.25 nM,0.7647 and 0.7661 and 0.7611 and 0.7735 and 0.7751 and 0.7748 and 0.7643 and 0.7625 and 0.7654
same,"BRET signal, raw replicate readings",human WT S1P5 receptor; S1P 3125 nM,0.7721 and 0.769 and 0.7694 and 0.7819 and 0.7829 and 0.7848 and 0.7658 and 0.7706 and 0.7596
same,"BRET signal, raw replicate readings",human WT S1P5 receptor; S1P 12500 nM,0.7775 and 0.7718 and 0.7733 and 0.7869 and 0.7878 and 0.7756 and 0.7691 and 0.7737 and 0.7605
same,"BRET signal, raw replicate readings",human WT S1P5 receptor; S1P 25000 nM,0.7765 and 0.7709 and 0.7762 and 0.7879 and 0.7898 and 0.785 and 0.7721 and 0.7678 and 0.7681
